# Legend:
# BMDM (CSF-1) = assay: Macrophage survival (CCK-8); type: cell-based, murine; details: Mus musculus, BMDM, 168 h; 7 days, mean ± SD
# Procedure: Murine bone marrow and human monocytes were stimulated with CSF-1 for 7 days together with the indicated inhibitor, and cell viability was evaluated by the CCK-8 assay. The IC50 values are shown as the mean ± SD (nM) from two independent tests. B-E, To test the impact of 3D185 on the polarization of CSF-1-induced macrophages, murine bone marrow cells and human monocytes were induced to mature into macrophages with CSF-1 for 7 days and then stimulated with CSF-1, IL-4 and IL-13 for an additional 48 h. The expression of the markers MHC-II (b), CD86 (c), and CD206 (d) on induced murine macrophages and CD206 expression on induced human macrophages (e) were determined by flow cytometry, and the mean fluorescence intensity (MFI) was analyzed with FlowJo. Representative data from two independent experiments. f Murine bone marrow cells (left panel) and human monocytes (right panel) were induced to mature into macrophages with CSF-1 for 7 days and then stimulated with CSF-1, IL-4 and IL-13 and treated with vehicle or the indicated inhibitor for an additional 48 h. Then, all cells were collected to count viable cells by staining with trypan blue
# Murine bone marrow-derived macrophages (BMDMs) and PBMCs were used for cell viability studies. BMDMs were harvested by flushing the tibias and femurs of 6- to 8-week-old C57BL/6 mice and depleting red blood cells (RBCs) by RBC lysis (Biogems). For BMDM survival, the cells were cultured for 7 days in RPMI 1640 containing 10% fetal bovine serum (FBS), 100 U/mL penicillin, 100 μg/mL streptomycin and 100 ng/mL mouse CSF-1 (or CSF-2) with or without the tested compounds. PBMCs were obtained from HemaCare and cultured for 7 days in RPMI 1640 containing 10% fetal bovine serum (FBS), 100 U/mL penicillin, 100 μg/mL streptomycin and 100 ng/mL human CSF-1 (or CSF-2) with or without the tested compounds. Cell viability was measured using the CCK-8 assay. For IL-4/IL-13-induced macrophage survival analysis, viable cells were counted by trypan blue exclusion.
# CSF-1R = CSF-1R (Homo sapiens, UniProt P07333); assay: Z'-LYTE kinase assay; type: biochemical; details: mean ± SD
# FGFR3 = molecular target: T1, FGFR3 (Homo sapiens, UniProt P22607); assay: Kinase inhibition assay (ELISA); type: biochemical; details: mean ± SD
# T1 construct: purchased Eurofins (Fremont, United States)
# CDKL1(h) = molecular target: T2, CDKL1(h) (Homo sapiens, UniProt Q00532); assay: Eurofins kinase panel; type: biochemical; details: read-out: Inhibition rate (%)
# T2 construct: purchased Eurofins (KinaseProfiler)
# T2 sequence (Q00532 whole entry): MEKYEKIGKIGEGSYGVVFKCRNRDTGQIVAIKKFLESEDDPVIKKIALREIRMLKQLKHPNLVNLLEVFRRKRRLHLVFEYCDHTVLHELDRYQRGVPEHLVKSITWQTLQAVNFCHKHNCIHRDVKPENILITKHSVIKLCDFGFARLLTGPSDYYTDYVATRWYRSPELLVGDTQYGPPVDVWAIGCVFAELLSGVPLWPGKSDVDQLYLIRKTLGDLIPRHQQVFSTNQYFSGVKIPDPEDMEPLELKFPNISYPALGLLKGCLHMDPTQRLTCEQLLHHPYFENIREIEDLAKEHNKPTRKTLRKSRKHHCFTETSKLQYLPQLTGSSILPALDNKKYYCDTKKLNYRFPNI
# WNK2(h) = molecular target: T3, WNK2(h) (Homo sapiens, UniProt Q9Y3S1); assay: Eurofins kinase panel; type: biochemical; details: read-out: Inhibition rate (%)
# T3 construct: purchased Eurofins (KinaseProfiler)
# T3 sequence (Q9Y3S1 whole entry): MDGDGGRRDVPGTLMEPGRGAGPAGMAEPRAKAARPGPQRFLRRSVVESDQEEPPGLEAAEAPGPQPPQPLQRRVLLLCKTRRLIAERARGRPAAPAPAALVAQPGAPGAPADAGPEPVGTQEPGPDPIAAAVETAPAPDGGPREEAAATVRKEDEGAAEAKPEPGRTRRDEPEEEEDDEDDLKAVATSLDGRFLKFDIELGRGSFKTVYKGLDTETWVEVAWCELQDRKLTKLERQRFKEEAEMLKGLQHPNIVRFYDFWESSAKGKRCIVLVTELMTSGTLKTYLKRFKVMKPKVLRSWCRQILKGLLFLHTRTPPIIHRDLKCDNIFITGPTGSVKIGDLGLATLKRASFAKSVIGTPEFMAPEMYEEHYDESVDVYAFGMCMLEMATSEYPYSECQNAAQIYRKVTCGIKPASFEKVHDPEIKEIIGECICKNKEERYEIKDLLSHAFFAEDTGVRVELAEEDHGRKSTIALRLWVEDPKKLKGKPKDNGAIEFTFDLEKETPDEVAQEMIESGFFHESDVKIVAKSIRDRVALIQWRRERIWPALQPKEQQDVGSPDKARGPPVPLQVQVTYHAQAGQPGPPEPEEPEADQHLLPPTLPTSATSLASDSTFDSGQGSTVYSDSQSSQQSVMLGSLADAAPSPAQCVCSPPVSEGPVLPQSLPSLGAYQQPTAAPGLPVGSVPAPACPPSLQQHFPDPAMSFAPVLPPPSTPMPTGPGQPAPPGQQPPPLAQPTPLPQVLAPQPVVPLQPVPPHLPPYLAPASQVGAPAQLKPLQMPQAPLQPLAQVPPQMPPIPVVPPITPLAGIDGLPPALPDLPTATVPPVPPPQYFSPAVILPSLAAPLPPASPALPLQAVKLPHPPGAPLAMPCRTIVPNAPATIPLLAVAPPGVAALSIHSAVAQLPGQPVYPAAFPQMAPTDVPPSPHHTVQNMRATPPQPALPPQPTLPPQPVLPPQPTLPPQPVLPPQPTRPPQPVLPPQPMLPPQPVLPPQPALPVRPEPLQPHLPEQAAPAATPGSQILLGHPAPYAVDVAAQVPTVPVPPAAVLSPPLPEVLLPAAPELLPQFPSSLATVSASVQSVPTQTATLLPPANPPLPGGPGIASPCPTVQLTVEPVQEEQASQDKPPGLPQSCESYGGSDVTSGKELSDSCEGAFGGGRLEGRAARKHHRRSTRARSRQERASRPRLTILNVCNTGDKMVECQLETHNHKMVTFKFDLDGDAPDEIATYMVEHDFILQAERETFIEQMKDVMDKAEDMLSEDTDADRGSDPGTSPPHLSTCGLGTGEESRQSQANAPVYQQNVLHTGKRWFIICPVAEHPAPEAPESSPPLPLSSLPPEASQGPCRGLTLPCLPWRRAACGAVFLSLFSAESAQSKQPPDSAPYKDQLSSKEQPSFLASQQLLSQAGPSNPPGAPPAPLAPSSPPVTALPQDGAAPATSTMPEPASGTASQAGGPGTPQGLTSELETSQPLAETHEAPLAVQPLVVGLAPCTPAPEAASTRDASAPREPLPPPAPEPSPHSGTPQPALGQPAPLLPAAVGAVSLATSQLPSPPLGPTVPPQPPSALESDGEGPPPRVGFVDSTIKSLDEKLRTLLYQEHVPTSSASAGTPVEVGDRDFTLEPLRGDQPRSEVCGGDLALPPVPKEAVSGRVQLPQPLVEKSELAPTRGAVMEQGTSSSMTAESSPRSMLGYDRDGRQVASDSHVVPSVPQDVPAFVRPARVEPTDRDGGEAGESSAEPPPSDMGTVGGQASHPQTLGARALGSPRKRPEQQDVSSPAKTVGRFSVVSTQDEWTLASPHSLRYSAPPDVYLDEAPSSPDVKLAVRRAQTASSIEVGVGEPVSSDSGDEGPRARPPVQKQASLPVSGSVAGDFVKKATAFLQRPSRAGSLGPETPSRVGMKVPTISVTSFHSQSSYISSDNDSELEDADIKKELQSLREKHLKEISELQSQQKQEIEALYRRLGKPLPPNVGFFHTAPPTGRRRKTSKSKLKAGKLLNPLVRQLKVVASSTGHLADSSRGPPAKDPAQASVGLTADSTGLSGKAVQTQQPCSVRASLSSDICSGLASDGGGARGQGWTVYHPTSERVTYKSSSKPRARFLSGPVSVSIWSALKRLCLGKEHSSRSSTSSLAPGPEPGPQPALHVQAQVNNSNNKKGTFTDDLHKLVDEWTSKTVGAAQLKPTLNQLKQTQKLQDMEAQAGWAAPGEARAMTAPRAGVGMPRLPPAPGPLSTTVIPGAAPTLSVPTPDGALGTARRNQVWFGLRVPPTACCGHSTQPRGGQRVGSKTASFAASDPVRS
# CLK3(h) = molecular target: T4, CLK3(h) (Homo sapiens, UniProt P49761); assay: Eurofins kinase panel; type: biochemical; details: read-out: Inhibition rate (%)
# T4 construct: purchased Eurofins (KinaseProfiler)
# T4 sequence (P49761 whole entry): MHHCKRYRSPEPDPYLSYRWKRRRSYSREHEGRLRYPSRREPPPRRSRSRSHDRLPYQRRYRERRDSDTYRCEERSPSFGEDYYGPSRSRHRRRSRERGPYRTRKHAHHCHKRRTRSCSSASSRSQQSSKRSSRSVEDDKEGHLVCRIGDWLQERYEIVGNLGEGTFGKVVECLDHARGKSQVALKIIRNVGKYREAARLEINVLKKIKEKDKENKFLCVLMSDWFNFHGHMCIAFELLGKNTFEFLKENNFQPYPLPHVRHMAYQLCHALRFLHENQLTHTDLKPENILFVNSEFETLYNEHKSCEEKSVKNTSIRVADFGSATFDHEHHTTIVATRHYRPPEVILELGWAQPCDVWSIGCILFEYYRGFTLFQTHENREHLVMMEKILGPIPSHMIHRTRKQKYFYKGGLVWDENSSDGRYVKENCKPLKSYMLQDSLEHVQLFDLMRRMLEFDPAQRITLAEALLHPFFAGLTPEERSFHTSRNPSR
# EphA2(h) = molecular target: T5, EphA2(h) (Homo sapiens, UniProt P29317); assay: Eurofins kinase panel; type: biochemical; details: read-out: Inhibition rate (%)
# T5 construct: purchased Eurofins (KinaseProfiler)
# T5 sequence (P29317 24-976): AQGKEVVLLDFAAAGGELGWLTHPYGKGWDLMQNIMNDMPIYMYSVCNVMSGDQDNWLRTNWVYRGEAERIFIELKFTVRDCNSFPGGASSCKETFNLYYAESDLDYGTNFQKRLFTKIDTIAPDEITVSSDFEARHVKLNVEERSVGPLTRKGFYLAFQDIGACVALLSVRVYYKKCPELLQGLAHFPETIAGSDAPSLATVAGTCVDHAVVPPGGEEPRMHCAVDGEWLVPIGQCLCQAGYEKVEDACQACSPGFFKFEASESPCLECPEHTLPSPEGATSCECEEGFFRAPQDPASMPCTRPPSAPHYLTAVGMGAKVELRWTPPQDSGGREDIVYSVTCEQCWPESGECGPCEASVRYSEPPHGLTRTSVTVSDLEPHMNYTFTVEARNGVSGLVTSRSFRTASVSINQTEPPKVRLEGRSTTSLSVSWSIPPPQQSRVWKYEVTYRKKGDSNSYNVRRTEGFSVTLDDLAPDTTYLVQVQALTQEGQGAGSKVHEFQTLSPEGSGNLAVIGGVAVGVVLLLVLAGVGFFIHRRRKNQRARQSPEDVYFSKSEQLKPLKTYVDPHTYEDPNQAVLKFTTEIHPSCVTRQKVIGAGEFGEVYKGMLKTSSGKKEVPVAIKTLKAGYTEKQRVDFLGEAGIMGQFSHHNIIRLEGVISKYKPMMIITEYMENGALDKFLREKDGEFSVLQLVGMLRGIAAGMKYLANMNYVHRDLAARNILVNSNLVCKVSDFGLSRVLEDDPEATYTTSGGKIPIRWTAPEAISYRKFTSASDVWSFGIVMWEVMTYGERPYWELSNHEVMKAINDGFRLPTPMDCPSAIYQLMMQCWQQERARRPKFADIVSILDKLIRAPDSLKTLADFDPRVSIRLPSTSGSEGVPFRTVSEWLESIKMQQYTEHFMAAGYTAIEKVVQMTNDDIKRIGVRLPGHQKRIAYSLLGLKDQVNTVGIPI
# SNRK(h) = molecular target: T6, SNRK(h) (Homo sapiens, UniProt Q9NRH2); assay: Eurofins kinase panel; type: biochemical; details: read-out: Inhibition rate (%)
# T6 construct: purchased Eurofins (KinaseProfiler)
# T6 sequence (Q9NRH2 1-765): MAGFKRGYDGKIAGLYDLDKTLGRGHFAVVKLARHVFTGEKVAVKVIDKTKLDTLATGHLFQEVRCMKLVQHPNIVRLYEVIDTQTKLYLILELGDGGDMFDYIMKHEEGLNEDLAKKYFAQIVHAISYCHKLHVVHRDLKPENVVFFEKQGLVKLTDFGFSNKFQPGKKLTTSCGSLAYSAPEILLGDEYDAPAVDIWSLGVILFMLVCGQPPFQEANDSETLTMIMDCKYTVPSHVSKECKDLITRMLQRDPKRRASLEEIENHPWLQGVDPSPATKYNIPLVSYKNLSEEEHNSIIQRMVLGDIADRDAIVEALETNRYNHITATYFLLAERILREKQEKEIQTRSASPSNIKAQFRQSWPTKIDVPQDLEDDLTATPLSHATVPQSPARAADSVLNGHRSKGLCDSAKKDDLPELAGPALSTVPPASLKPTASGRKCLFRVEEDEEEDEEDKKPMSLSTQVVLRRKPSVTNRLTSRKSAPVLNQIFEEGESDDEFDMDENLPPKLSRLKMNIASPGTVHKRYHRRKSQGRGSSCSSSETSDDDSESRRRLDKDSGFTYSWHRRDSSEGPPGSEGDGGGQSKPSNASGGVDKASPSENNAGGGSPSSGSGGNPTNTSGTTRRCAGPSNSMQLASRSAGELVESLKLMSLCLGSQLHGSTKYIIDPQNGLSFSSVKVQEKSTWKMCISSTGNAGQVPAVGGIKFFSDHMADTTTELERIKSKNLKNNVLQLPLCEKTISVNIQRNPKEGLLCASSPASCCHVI
# GSK3α(h) = molecular target: T7, GSK3α(h) (Homo sapiens, UniProt P49840); assay: Eurofins kinase panel; type: biochemical; details: read-out: Inhibition rate (%)
# T7 construct: purchased Eurofins (KinaseProfiler)
# T7 sequence (P49840 whole entry): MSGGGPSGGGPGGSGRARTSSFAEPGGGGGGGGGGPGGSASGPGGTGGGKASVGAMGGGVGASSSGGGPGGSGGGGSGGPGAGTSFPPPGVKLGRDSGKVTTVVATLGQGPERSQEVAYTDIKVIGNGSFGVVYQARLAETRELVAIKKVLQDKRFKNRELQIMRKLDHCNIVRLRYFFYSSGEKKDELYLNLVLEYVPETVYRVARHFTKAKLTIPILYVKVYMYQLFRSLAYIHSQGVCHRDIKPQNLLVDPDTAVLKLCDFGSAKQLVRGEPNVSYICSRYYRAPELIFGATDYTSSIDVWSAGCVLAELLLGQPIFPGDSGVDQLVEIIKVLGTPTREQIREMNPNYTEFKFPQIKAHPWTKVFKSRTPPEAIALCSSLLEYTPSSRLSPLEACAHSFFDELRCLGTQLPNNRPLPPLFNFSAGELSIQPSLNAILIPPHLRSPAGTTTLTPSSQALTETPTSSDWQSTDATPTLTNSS
# TSSK4(h) = molecular target: T8, TSSK4(h) (Homo sapiens, UniProt Q6SA08); assay: Eurofins kinase panel; type: biochemical; details: read-out: Inhibition rate (%)
# T8 construct: purchased Eurofins (KinaseProfiler)
# T8 sequence (Q6SA08 1-328): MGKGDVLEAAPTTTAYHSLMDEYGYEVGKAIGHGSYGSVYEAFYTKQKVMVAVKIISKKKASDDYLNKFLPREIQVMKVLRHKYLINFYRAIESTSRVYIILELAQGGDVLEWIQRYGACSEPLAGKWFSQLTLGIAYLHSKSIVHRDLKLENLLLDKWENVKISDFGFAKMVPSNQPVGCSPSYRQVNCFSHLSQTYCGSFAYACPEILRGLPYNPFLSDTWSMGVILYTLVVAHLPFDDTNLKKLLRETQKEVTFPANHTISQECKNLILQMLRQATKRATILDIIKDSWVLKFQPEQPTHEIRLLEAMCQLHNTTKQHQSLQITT
# FGFR2 = molecular target: T9, FGFR2 (Homo sapiens, UniProt P21802); assay: Kinase inhibition assay (ELISA); type: biochemical; details: mean ± SD
# T9 construct: purchased Eurofins (Fremont, United States)
smiles,measurement,setting,value
COc1cc(OC)c(Cl)c(-c2ccc3c(NC(=O)c4ccc(N5CCNC(C)(C)C5)cc4)n[nH]c3n2)c1Cl [3D185],IC50,BMDM (CSF-1),57.8 nM
same,IC50,CSF-1R,3.8 nM
same,IC50,FGFR3,3.6 nM
same,inhibition at 0.01 µM,CDKL1(h); 10 nM,3%
same,inhibition at 0.1 µM,CDKL1(h); 100 nM,-5%
same,inhibition at 1 µM,CDKL1(h); 1000 nM,0%
same,inhibition at 0.01 µM,WNK2(h); 10 nM,0%
same,inhibition at 0.1 µM,WNK2(h); 100 nM,-1%
same,inhibition at 1 µM,WNK2(h); 1000 nM,22%
same,inhibition at 0.01 µM,CLK3(h); 10 nM,2%
same,inhibition at 0.1 µM,CLK3(h); 100 nM,9%
same,inhibition at 1 µM,CLK3(h); 1000 nM,16%
same,inhibition at 0.01 µM,EphA2(h); 10 nM,13%
same,inhibition at 0.1 µM,EphA2(h); 100 nM,24%
same,inhibition at 1 µM,EphA2(h); 1000 nM,73%
same,inhibition at 0.01 µM,SNRK(h); 10 nM,-8%
same,inhibition at 0.1 µM,SNRK(h); 100 nM,-42%
same,inhibition at 1 µM,SNRK(h); 1000 nM,-44%
same,inhibition at 0.01 µM,GSK3α(h); 10 nM,10%
same,inhibition at 0.1 µM,GSK3α(h); 100 nM,4%
same,inhibition at 1 µM,GSK3α(h); 1000 nM,-5%
same,inhibition at 0.01 µM,TSSK4(h); 10 nM,-6%
same,inhibition at 0.1 µM,TSSK4(h); 100 nM,-10%
same,inhibition at 1 µM,TSSK4(h); 1000 nM,-9%
same,IC50,FGFR2,1.3 nM

# From publication PMC6704710, “Preclinical evaluation of 3D185, a novel potent inhibitor of FGFR1/2/3 and CSF-1R, in FGFR-dependent and macrophage-dominant cancer models” (Journal of Experimental & Clinical Cancer Research : CR, 2019)
